Results on three molecules are retold here after publication PMC12021451 (Planta Medica, 2025).

A short description of this series: blood-to-plasma concentration ratio. The settings on record: range of 4 to 1000 ng/mL. Format: in vitro ADME, human.

Structures can show the parent of a compound that is named as a salt.

For the molecule `Cn1c(=O)c2c(ncn2C)n(C)c1=O` [Caffeine], the “Effect of the compound concentration on the Rb value” (shortened to “Effect of the compound concentration”) is recorded as “not observed”.

Take `CN(C)CCCN1c2ccccc2CCc2ccccc21` [Imipramine, imipramine hydrochlorid]: the “Effect of the compound concentration” value was “not observed”.

Regarding `C/C=C1/C[C@@H](C)[C@](O)(CO)C(=O)OCC2=CC[N@@+]3([O-])CC[C@@H](OC1=O)[C@@H]23` [Retrorsine N -oxide], the “Effect of the compound concentration” value was “no concentration dependency was observed”.
